Consider one compound from publication PMC6934184, “Selective DNA-PKcs inhibition extends the therapeutic index of localized radiotherapy and chemotherapy” (The Journal of Clinical Investigation, 2019).

Structures are written as SMILES.

The assay has as its target T1, ALK C1156Y (Homo sapiens, UniProt Q9UM73, C1156Y).
T1 construct: purchased Thermo Fisher Scientific (Life Technologies) SelectScreen
Briefly: SelectScreen LanthaScreen. The assay is classed as binding. The settings on record: read-out: % displacement. The method, boiled down:
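SelectScreen broad panel; activity (Z'LYTE, Adapta) plus binding formats. ATP: Km app for CSF1R Z'LYTE; 10 for CAMK1 Adapta. Readout = % per kinase.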
Background: Time-resolved FRET reads energy transfer from a long-lived donor to a nearby acceptor.

T1 sequence (Q9UM73 19-1620 C1156Y): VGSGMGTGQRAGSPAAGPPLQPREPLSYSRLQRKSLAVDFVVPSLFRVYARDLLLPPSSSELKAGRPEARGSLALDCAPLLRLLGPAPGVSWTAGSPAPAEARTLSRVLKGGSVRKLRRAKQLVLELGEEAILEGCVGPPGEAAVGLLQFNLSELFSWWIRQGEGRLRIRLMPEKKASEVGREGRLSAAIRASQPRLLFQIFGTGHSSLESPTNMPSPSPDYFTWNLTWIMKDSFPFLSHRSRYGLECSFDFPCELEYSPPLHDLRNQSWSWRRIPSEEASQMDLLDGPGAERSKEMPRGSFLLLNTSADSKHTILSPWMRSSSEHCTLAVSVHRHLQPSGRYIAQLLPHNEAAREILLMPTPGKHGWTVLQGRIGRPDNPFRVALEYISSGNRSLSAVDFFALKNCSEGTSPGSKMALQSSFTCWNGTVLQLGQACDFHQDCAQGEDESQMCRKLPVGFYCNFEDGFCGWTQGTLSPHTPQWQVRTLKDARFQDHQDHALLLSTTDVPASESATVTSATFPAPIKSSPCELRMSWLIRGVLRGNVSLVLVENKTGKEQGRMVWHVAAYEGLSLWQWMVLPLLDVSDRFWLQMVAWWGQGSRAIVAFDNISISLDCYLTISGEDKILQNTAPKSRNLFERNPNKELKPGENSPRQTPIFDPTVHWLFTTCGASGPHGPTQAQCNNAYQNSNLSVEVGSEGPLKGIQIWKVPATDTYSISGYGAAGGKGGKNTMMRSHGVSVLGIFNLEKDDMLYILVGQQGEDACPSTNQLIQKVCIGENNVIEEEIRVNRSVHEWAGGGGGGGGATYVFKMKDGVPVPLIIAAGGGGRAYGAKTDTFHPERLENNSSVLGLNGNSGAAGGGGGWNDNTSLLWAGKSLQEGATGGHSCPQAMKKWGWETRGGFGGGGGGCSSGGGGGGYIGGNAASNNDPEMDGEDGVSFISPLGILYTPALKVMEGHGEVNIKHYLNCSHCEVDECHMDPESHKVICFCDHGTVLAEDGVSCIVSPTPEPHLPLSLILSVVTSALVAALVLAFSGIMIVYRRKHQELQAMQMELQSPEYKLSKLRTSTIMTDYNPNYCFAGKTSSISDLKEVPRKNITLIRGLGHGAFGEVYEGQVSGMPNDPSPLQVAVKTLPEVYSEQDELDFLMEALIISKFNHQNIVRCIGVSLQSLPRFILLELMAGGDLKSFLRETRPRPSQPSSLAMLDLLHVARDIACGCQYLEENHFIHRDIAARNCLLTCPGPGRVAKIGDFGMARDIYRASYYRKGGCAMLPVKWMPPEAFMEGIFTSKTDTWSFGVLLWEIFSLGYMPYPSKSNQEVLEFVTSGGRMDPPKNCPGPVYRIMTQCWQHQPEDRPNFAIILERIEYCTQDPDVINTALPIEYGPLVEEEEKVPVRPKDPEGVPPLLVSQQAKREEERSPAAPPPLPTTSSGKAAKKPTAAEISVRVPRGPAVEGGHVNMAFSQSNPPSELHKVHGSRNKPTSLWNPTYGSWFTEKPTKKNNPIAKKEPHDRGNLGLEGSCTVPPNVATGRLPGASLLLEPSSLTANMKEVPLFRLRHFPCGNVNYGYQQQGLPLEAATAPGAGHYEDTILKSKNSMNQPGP

With `CN(C(=O)CN1CCOCC1)c1ccc2sc3c(-c4cccc5c(=O)cc(N6CC7CCC(C6)O7)oc45)cccc3c2c1` [NU5455], the inhibition at 1 µM worked out at 0.6%.
